The term melting point denotes the temperature, or range, at which the solid turns liquid.

With `CC(C)c1nc(-c2ccccc2Cc2ccccc2)cc(-c2ccc(F)cc2)c1CO`, the melting point lay within 122 to 124 °C.

For `Cc1ccc(Cn2cc(C(=O)C(=O)NC3=CC(=O)OC3)c3ccc(F)cc32)cc1`, the melting point lay in the range of 218 to 220 °C. The result for `CCC(=O)NCC1CC1c1cccc2nnsc12` (configuration not stated) reads 67 to 69 °C; that for `O=[N+]([O-])c1cnccc1NCc1ccc(CO)o1`, 135 °C. In the case of `O=C1Cc2ccc3ccccc3c2OC1C(=O)c1cccc(Cl)c1` (configuration not stated) it was 206 to 208 °C; in that of `CSc1nc2c(OCc3ccccc3)cccc2n1CCCO`, 106 to 107 °C. `CC12CCC3C(CCC4CC5OC5CC43C)C1CC(N1CCCC1)C2=O` (configuration not stated) displayed a melting point of 146 °C. As for `O=C1OC(c2ccc(F)cc2)c2ncccc21` (configuration not stated), the melting point lay within 116 to 118 °C.

Consider `Cc1nn(C)c2c(Cl)nc(C3CC3)nc12`, for which the melting point was in the range of 87 to 90 °C. `CN1C(=O)C(c2cc[nH]c2)(c2cccc(O)c2)N=C1N` (configuration not stated) had a melting point of 142 to 145 °C. The result for `COc1nc2ccccc2nc1N(C)C(=O)N1CCN(c2cc(C)cc(C)c2)CC1` reads 142 to 144 °C; that for `COc1c(Cl)ccc(C(=O)O)c1SC`, 98 to 99 °C; that for `COc1ccc(/C=C/C(=O)/C=C/c2ccc(C(F)(F)F)cc2)cc1`, 144 to 146 °C.

`Cc1ccc2c(c1)C(c1ccccc1)CC(NC(=O)Nc1cccc(Cl)c1)C(=O)N2CC(=O)NC(C)(C)C` (configuration not stated) gave a melting point of 282 to 285 °C. In the case of `CC(C)(C)OC(=O)NCCCCC(=O)Nc1ccc(O)c(C(=O)O)c1` it was 181 °C; in that of `Cc1cc(OCc2ccccc2)cc(C)c1NC(=O)CCl`, 165 °C; in that of `CCOC(=O)c1cn(N)c2c(F)c(F)c(F)cc2c1=O`, 217 °C. The result for `COc1ccc(CCCN2C(=O)c3ccccc3C2=O)cc1OC` reads 82 to 85 °C; that for `COc1ccc(S(=O)(=O)N(Cc2cccnc2)c2c(C(=O)NO)cnc3c2c(C)nn3C)cc1`, 202 to 204 °C; that for `CC(=O)N(CC(=O)N1c2ccccc2N(Cc2ccccc2)C(=O)[C@H]2CCC[C@H]21)Cc1ccccc1` (relative stereo), 179 to 181 °C. `CCOC(=O)c1cn(-c2nccs2)c2c(F)c(F)c(F)cc2c1=O` yielded a melting point of 172 to 174 °C.

Compound `CCS(=O)(=O)Nc1c(C)cccc1C` gave a melting point of 90 °C.

As for `CC(=O)Nc1cccc(-c2nn(Cc3oc4ccccc4c(=O)c3-c3ccccc3)c3ncnc(N)c23)c1`, the melting point fell in the range of 122 to 123 °C.

Consider `ClC(Cl)(Cl)C1NCCO1` (configuration not stated), for which the melting point amounted to 73 °C. The compound `CCCn1c(=O)c2c(n(Cc3ccccc3)c1=O)NN=C(NC(C)=O)S2` registered a melting point of 135 to 140 °C. As to `COC(=O)c1c(Cl)nc2cc3c(cc2c1CN1CCN(C)CC1)OCCO3`, the melting point was determined as 143 °C. `CCC1(C)CC(NC(=O)c2ccccc2)C(C)C(C)(CC)N1OC(C)c1ccccc1` (configuration not stated): the melting point was in the range of 112 to 147 °C. In the case of `CC(=O)OC1C(Oc2cc(C)cc(O)c2C(=O)CCc2ccc3occc3c2)OC(CO)C(O)C1O` (configuration not stated) it was 160 °C; in that of `CC(C)(C)OC(=O)C1CCCN1Cc1ccc2cc(NC(=O)c3ccc(-c4ccc(Cl)cc4)cc3)ccc2n1` (configuration not stated), 163 to 166 °C. In the case of `COc1cccc(CN2C(=NCCCn3ccnc3)c3cccc4cccc2c34)c1`, the melting point fell in the range of 95 to 96 °C. In the case of `Cc1cccc2c1C(=O)N(CO)S2(=O)=O` it was 196 to 198 °C; in that of `COc1ccc2c(C(=O)O)cc3cc(OC)c(OC)cc3c2c1`, 241 to 243 °C; in that of `Cc1ncc([N+](=O)[O-])n1CCOC(=O)Cc1ccccc1Nc1c(Cl)cccc1Cl`, 122 to 124 °C. The result for `CCCCCn1cc(C(=O)O)c2ccc(Cl)cc21` reads 152 to 154 °C.

`Cc1ccc(C(=O)NCc2ccccc2)cc1-c1nc(S(C)(=O)=O)nc2c1CNC(=O)N2c1c(F)cccc1F` showed a melting point of 239 to 241 °C. `CCCCCCCCc1ncc(-c2ccc(OC(=O)[C@H]3CCCO3)cc2)cn1`: the melting point amounted to 68 °C.

Compound `CCCCNC(=O)NCCOc1ccc2c(ccn2Cc2ccc(Cl)cc2)c1` displayed a melting point of 163 to 164 °C. Consider `CCC(CC)n1cc(Br)nc(N2CCc3cc(OC)cc(C)c32)c1=O`, for which the melting point lay within 152 to 154 °C. In the case of `CN(C)c1cccc(C(=O)Nc2ccc3ccc(Oc4ccccc4)nc3n2)c1` it was 120 °C. The result for `CNC(=O)N1N=C(c2ccc(N)cc2)c2cc(Cl)ccc2CC1C` (configuration not stated) reads 115 to 118 °C. The compound `CCCc1c(CSc2nnc(SCCCC(=O)O)s2)ccc(C(C)=O)c1O` showed a melting point of 75 to 78 °C. The result for `CN1C[C@H](O)C[C@H]1CCOc1ccc(Cl)cc1CCc1ccccc1` reads 65 to 68 °C. In the case of `NC1(NC(=O)C(F)(F)F)CN(c2c(F)cc3c(=O)c(C(=O)O)cn(-c4ccc(F)cc4F)c3c2F)C1` it was 190 to 196 °C; in that of `CCCCS(=O)(=O)NC(=O)c1ccc2nc(C)n(Cc3ccc(-c4ccccn4)cc3)c2c1`, 292 to 298 °C; in that of `CCOC(=O)COc1ccc2c(=O)c3c(oc2c1)C(=Cc1ccccc1)CC3`, 152 to 154 °C. The result for `COC(=O)[C@H](Cc1ccc(NC(=O)c2c(Cl)cccc2Cl)cc1)NC(=S)C1(CCCCS(C)(=O)=O)CCCC1` reads 200 to 202 °C. On to `C=C(C)CSc1nc2c(cc1C#N)C(=O)CCC2`, for which the melting point lay within 85 to 86 °C. With `Fc1ccc(-c2nn3c(-c4ccccc4)cc(-c4ccccc4)nc3c2-c2ccncc2)cc1`, the melting point fell in the range of 243 to 245 °C. Regarding `C[Si](C)(C)C#Cc1c(F)c(F)c(F)c(C#C[Si](C)(C)C)c1F`, the melting point lay within 55 to 57 °C.

In the case of `CCc1c(-c2ccc(O)cc2)c2cc(COCCN3CCCCC3)c3cccc1n32`, the melting point fell in the range of 132 to 134 °C. In the case of `Oc1ccc2nc(-c3ccc(O)c(F)c3)oc2c1` it was 269 to 271 °C; in that of `NC(=O)c1cc(NCc2cccc(F)c2)c([N+](=O)[O-])cc1[N+](=O)[O-]`, 175 to 177 °C; in that of `CCCCCCCCCCCCS(=O)(=O)c1ccc2c(c1)C(=O)c1c(c(O)c3ccccc3c1O)C2=O`, 185 to 186 °C.

With `COc1ccc2ccc(N3C(=O)c4ccccc4C3CC(=O)CCc3ccccc3)nc2n1` (configuration not stated), the melting point amounted to 180 °C. The result for `CCOC(=O)C1=C(NC(=O)Nc2cc(C(=O)OC(C)C)c(Br)cc2Br)CCC1` reads 157 to 158 °C; that for `CCCC(=Cc1ccsc1)[N+](=O)[O-]`, 52 to 54.5 °C; that for `Cc1cc(I)c(C(N)=O)cc1C`, 195 to 197 °C. `CCCCCCCCCCCCCCCCCCN(CCCCCCCCCCCCCCCCCC)CCCN(CC(=O)OC)CC(=O)OC` yielded a melting point of 75 to 77 °C. The result for `CC(C)(NSc1nc2ccccc2s1)c1ccccc1` reads 88 to 90 °C; that for `COCN(C(=O)Nc1ccc(Cl)cc1)C(=O)c1c(Cl)cccc1Cl`, 122 °C. The compound `CCC(=O)NC1=NN(c2nc3ccccc3s2)C(c2ccc(C)cc2)C1` (configuration not stated) yielded a melting point of 208 to 209 °C. `CS(=O)(=O)N1CCC(C(CS(=O)(=O)c2ccc(Oc3ccc(OC(F)(F)F)cc3)cc2)N(O)C=O)CC1` (configuration not stated) registered a melting point of 178 to 179 °C.

The compound `CCc1cccc(CC)c1NC(=O)NC1(c2ccccc2)CCC1` gave a melting point of 227 to 230 °C.

`CC(C)(C)OC(=O)N1CCC(C2=C(C#N)C(c3cccc(C#N)c3Br)c3c[nH]nc3N2)CC1` (configuration not stated) showed a melting point above 270 °C. In the case of `CCCCCCCCCOc1cc(C(N)=O)ccn1` it was 108 to 110 °C; in that of `N#CC=CC(=O)C=NN1CC(=O)NC1=O`, 171 to 173 °C; in that of `C=CC(=O)NCCCCCCCCOc1ccccc1`, 45 to 47 °C. In the case of `N=C(Nc1ccccc1)Nc1ncccc1OCc1ccc(Cl)cc1` it was 173 to 174 °C.

`O=C1OC(CCCN2CCN(c3ccccn3)CC2)CN1c1ccccc1` (configuration not stated) came in with a melting point of 123 to 125 °C. The result for `Cn1c(=O)c2nc(-c3ccc(/C=C/C(=O)O)cc3)[nH]c2n(Cc2cccc(C#N)c2)c1=O` reads above 300 °C. In the case of `O=C(Nc1ccccc1C(c1ccc(O)cc1)c1ccc(O)cc1)c1cccs1` it was 240 to 243 °C; in that of `O=C(O)CCC/C=C\C[C@H]1[C@@H]2CC[C@@H](C2)[C@@H]1NC(=O)c1ccc(S(=O)(=O)n2cccc2)s1`, 113 to 114 °C. The result for `Cc1noc(C)c1-c1ccc(C[C@H](NC(=O)c2c(Cl)cccc2Cl)C(=O)O)cc1` reads 152 °C; that for `COc1ccc(C#N)cc1/C=C/C(=O)N[C@H](CO)CN1CCC(C(=O)c2ccc(Cl)cc2)CC1`, 162 to 163 °C. On to `CCc1nc(-c2cccc(C)c2)c(-c2ccnc(CC#N)c2)s1`, for which the melting point lay within 68 to 69 °C. The result for `COc1cc(C)nc(NC(=O)NS(=O)(=O)C2=CCCCC2)n1` reads 163 to 166 °C.

With `Cc1nn2c(C=O)c(-c3ccccc3)nc2s1`, the melting point was 152 to 153 °C. The compound `Cc1c(C)c(N2CCN(c3ccc(C(F)(F)F)cc3)CC2)c(C)c2c1OC(C)(C)C2O` (configuration not stated) gave a melting point of 212 to 214 °C. The result for `O=[N+]([O-])c1cnc2ccc(-c3ccccc3)cc2c1Cl` reads 144 to 145 °C; that for `N#Cc1cc([N+](=O)[O-])cc(O)c1O`, 186 to 188 °C; that for `CN1CCC(c2c[nH]c3ccc(Br)cc23)C1` (configuration not stated), 152 to 154 °C. Compound `Cc1ccc(CN2CCN(C(=O)OC(C)(C)C)CC2)cc1` registered a melting point of 61 to 62 °C. In the case of `O=C(O)c1cccc(Cc2c[nH]cn2)c1O` it was 245 to 252 °C; in that of `N#Cc1cnc(N[C@@H]2CCCc3ccccc32)nc1N`, 168 °C. Take `CNS(=O)(=O)c1cc(OC)c(OC)c(C(=O)NCC2CCCN2CC2=CCCCC2)c1` (configuration not stated): the melting point was in the range of 120 to 121 °C.

`Cc1ccc2c(c1)C(O)=C(C(=O)Nc1cncc(Cl)n1)N(C)S2(=O)=O` displayed a melting point of 296 to 298 °C.

Take `Cn1c(C(F)(F)F)cc(=O)n(-c2ccc3snc(N4CCOCC4)c3c2)c1=O`: the melting point lay within 200 to 205 °C.

The values above are taken from a melting point compilation (Tetko et al.; mined from patent text by program, amines drawn as free bases though some values may be those of a salt).
